Molecules are shown by their SMILES.

This assay addresses T1, full length SGK1 (Homo sapiens, UniProt O00141).
T1 construct: 125 μM full length SGK1 (Life Technologies Part #PR7358A); purchased Life Technologies PR7358A
T1 sequence (O00141 1-431): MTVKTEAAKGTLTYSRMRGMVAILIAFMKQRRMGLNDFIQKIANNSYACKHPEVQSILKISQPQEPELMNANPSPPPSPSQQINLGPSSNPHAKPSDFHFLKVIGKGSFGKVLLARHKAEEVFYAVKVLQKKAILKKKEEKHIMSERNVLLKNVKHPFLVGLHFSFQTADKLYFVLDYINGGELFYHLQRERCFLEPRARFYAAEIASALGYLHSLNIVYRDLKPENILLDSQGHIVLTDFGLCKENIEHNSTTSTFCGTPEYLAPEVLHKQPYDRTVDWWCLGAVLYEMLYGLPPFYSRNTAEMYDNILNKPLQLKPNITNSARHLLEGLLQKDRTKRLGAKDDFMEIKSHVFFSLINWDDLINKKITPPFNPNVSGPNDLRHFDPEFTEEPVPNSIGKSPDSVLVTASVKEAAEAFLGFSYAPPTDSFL
The assay can be described thus: SGK1 inhibition Assay A (Caliper LabChip electrophoretic separation of fluorescent peptide substrate and phosphorylated product). The format is biochemical. The conditions noted are these: Assay A; 20 μM ATP, 40 min incubation; read-out: SGK1 IC50.

Broadly, the IC50 is the midpoint of a concentration-inhibition curve. For the compound `COC(=O)N1CC=C(c2cc(N3CCC[C@@H](NC(=O)c4sc5ccccc5c4OC4CCN(C(C)C)CC4)C3)c3c(N)ncnn23)C1` [Example 659, methyl (R)-3-(4-amino-5-(3-(3-((1-isopropylpiperidin-4-yl)oxy)benzo[b]thiophene-2-carboxamido)piperidin-1-yl)pyrrolo[2,1-f][1,2,4]triazin-7-yl)-2,5-dihydro-1H-pyrrole-1-carboxylate], the IC50 came to 7 nM.

With `COC(=O)N1CC=C(c2cc(N3CCC[C@@H](NC(=O)c4sc5ccccc5c4OC4CCN(CCO)CC4)C3)c3c(N)ncnn23)C1` [Example 660, methyl (R)-3-(4-amino-5-(3-(3-((1-(2-hydroxyethyl)piperidin-4-yl)oxy)benzo[b]thiophene-2-carboxamido)piperidin-1-yl)pyrrolo[2,1-f][1,2,4]triazin-7-yl)-2,5-dihydro-1H-pyrrole-1-carboxylate], the IC50 turned out to be 2 nM.

As for `COC(=O)N1CC=C(c2cc(N3CCC[C@@H](NC(=O)c4sc5ccccc5c4OCCN(C)C)C3)c3c(N)ncnn23)C1` [Example 661, Methyl (R)-3-(4-amino-5-(3-(3-(2-(dimethylamino)ethoxy)benzo[b]thiophene-2-carboxamido)piperidin-1-yl)pyrrolo[2,1-f][1,2,4]triazin-7-yl)-2,5-dihydro-1H-pyrrole-1-carboxylate], the IC50 came to 13 nM.

Regarding `CC(=O)N1CC=C(c2cc(N3CCC[C@@H](NC(=O)c4sc5ccccc5c4OCCN(C)C)C3)c3c(N)ncnn23)C1` [Example 662, (R)-N-(1-(7-(1-acetyl-2,5-dihydro-1H-pyrrol-3-yl)-4-aminopyrrolo[2,1-f][1,2,4]triazin-5-yl)piperidin-3-yl)-3-(2-(dimethylamino)ethoxy)benzo[b]thiophene-2-carboxamide], the IC50 turned out to be 16 nM.

Turning to `CN(C)CCOc1c(C(=O)N[C@@H]2CCCN(c3cc(-c4ccc(C(N)=O)nc4)n4ncnc(N)c34)C2)sc2ccccc12` [Example 664, (R)-5-(4-amino-5-(3-(3-(2-(dimethylamino)ethoxy)benzo[b]thiophene-2-carboxamido)piperidin-1-yl)pyrrolo[2,1-f][1,2,4]triazin-7-yl)picolinamide], the 50% inhibitory concentration (IC50) is 13 nM.

Turning to `CN(C)CCOc1c(C(=O)N[C@@H]2CCCN(c3cc(-c4ccc(C#N)nc4)n4ncnc(N)c34)C2)sc2ccncc12` [Example 666, (R)—N-(1-(4-amino-7-(6-cyanopyridin-3-yl)pyrrolo[2,1-f][1,2,4]triazin-5-yl)piperidin-3-yl)-3-(2-(dimethylamino)ethoxy)thieno[3,2-c]pyridine-2-carboxamide], the IC50 is 11 nM.

Regarding `COC(=O)N1CC=C(c2cc(N3CCC[C@@H](NC(=O)c4sc5ccncc5c4OCCN(C)C)C3)c3c(N)ncnn23)C1` [Example 668, methyl (R)-3-(4-amino-5-(3-(3-(2-(dimethylamino)ethoxy)thieno [3,2-c]pyridine-2-carboxamido)piperidin-1-yl)pyrrolo[2,1-f] [1,2,4]triazin-7-yl)-2,5-dihydro-1H-pyrrole-1-carboxylate], the IC50 came out at 21 nM.

For `CC(=O)N1CC=C(c2cc(N3CCC[C@@H](NC(=O)c4sc5ccncc5c4OCCN(C)C)C3)c3c(N)ncnn23)C1` [Example 669, (R)-N-(1-(7-(1-acetyl-2,5-dihydro-1H-pyrrol-3-yl)-4-aminopyrrolo[2,1-f][1,2,4]triazin-5-yl)piperidin-3-yl)-3-(2-(dimethylamino)ethoxy)thieno [3,2-c]pyridine-2-carboxamide], the IC50 was determined as 22 nM.

On to `CN(C)CCOc1c(C(=O)N[C@@H]2CCCN(c3cc(-c4ccc(C(N)=O)nc4)n4ncnc(N)c34)C2)sc2ccncc12` [Example 670, (R)-N-(1-(4-amino-7-(6-carbamoylpyridin-3-yl)pyrrolo[2,1-f] [1,2,4]triazin-5-yl)piperidin-3-yl)-3-(2-(dimethylamino)ethoxy)thieno [3,2-c]pyridine-2-carboxamide], for which the IC50 was 40 nM.

Consider `COC(=O)N1CCC(c2cc(N3CCC[C@@H](NC(=O)c4sc5ccccc5c4OC4CN(C(=O)OC(C)(C)C)C4)C3)c3c(N)ncnn23)C1` (stereo partly drawn) [Example 671, methyl 3-(4-amino-5-((R)-3-(3-((1-(tert-butoxycarbonyl)azetidin-3-yl)oxy)benzo[b]thiophene-2-carboxamido)piperidin-1-yl)pyrrolo[2,1-f][1,2,4]triazin-7-yl)pyrrolidine-1-carboxylate], for which the IC50 was 67 nM.

For the compound `CC(=O)N1CC=C(c2cc(N3CCC[C@@H](NC(=O)c4sc5ccccc5c4OC4CN(C(=O)OC(C)(C)C)C4)C3)c3c(N)ncnn23)C1` [Example 673, tert-butyl (R)-3-((2-((1-(7-(1-acetyl-2,5-dihydro-1H-pyrrol-3-yl)-4-aminopyrrolo [2,1-f][1,2,4]triazin-5-yl)piperidin-3-yl)carbamoyl)benzo[b]thiophen-3-yl)oxy)azetidine-1-carboxylate], the half-inhibitory concentration (IC50) is 96 nM.

`COC(=O)N1CC=C(c2cc(N3CCC[C@@H](NC(=O)c4sc5ccccc5c4OC4CNC4)C3)c3c(N)ncnn23)C1` [Example 674, methyl (R)-3-(4-amino-5-(3-(3-(azetidin-3-yloxy)benzo[b]thiophene-2-carboxamido)piperidin-1-yl)pyrrolo[2,1-f][1,2,4]triazin-7-yl)-2,5-dihydro-1H-pyrrole-1-carboxylate]: the IC50 was 85 nM.

As to `NC(=O)c1ccc(-c2cc(N3CCC[C@@H](NC(=O)c4sc5ccccc5c4OC4CNC4)C3)c3c(N)ncnn23)cn1` [Example 675, (R)-5-(4-amino-5-(3-(3-(azetidin-3-yloxy)benzo[b]thiophene-2-carboxamido)piperidin-1-yl)pyrrolo[2,1-f][1,2,4]triazin-7-yl)picolinamide], the IC50 came to 25 nM.

For `CC(=O)N1CC=C(c2cc(N3CCC[C@@H](NC(=O)c4sc5ccc(C#N)cc5c4OC4CCN(C(=O)OC(C)(C)C)CC4)C3)c3c(N)ncnn23)C1` [Example 676, tert-butyl (R)-4-((2-((1-(7-(1-acetyl-2,5-dihydro-1H-pyrrol-3-yl)-4-aminopyrrolo[2,1-f][1,2,4]triazin-5-yl)piperidin-3-yl)carbamoyl)-5-cyanobenzo[b]thiophen-3-yl)oxy)piperidine-1-carboxylate], the IC50 stood at 117 nM.

Take `CC(=O)N1CC=C(c2cc(N3CCC[C@@H](NC(=O)c4sc5ccc(C#N)cc5c4OC4CCNCC4)C3)c3c(N)ncnn23)C1` [Example 677, (R)—N-(1-(7-(1-acetyl-2,5-dihydro-1H-pyrrol-3-yl)-4-aminopyrrolo[2,1-f][1,2,4]triazin-5-yl)piperidin-3-yl)-5-cyano-3-(piperidin-4-yloxy)benzo[b]thiophene-2-carboxamide]: the IC50 amounted to 35 nM.

`COC(=O)N1CC=C(c2cc(N3CCC[C@@H](NC(=O)c4sc5ccc(C#N)cc5c4OC4CCN(C(=O)OC(C)(C)C)CC4)C3)c3c(N)ncnn23)C1` [Example 678, tert-butyl (R)-4-((2-((1-(4-amino-7-(1-(methoxycarbonyl)-2,5-dihydro-1H-pyrrol-3-yl)pyrrolo[2,1-f][1,2,4]triazin-5-yl)piperidin-3-yl)carbamoyl)-5-cyanobenzo[b]thiophen-3-yl)oxy)piperidine-1-carboxylate]: the IC50 came out at 477 nM.

In the case of `CC(=O)N1CC=C(c2cc(N3CCC[C@@H](NC(=O)c4cn5ccc(C#N)cc5n4)C3)c3c(N)ncnn23)C1` [Example 679, (R)—N-(1-(7-(1-acetyl-2,5-dihydro-1H-pyrrol-3-yl)-4-aminopyrrolo[2,1-f][1,2,4]triazin-5-yl)piperidin-3-yl)-7-cyanoimidazo[1,2-a]pyridine-2-carboxamide], the 50% inhibitory concentration (IC50) amounted to 484 nM.

Take `CCn1cc(-c2cc(N3CCC[C@@H](NC(=O)c4sc(Cl)cc4OCCN(C)C)C3)c3c(N)ncnn23)ccc1=O` [Example 682, (R)—N-(1-(4-amino-7-(1-ethyl-6-oxo-1,6-dihydropyridin-3-yl)pyrrolo[2,1-f][1,2,4]triazin-5-yl)piperidin-3-yl)-5-chloro-3-(2-(dimethylamino)ethoxy)thiophene-2-carboxamide]: the IC50 is 1420 nM.

`N=c1ccc(-c2cc(N3CCC[C@@H](NC(=O)c4ccc(Cl)s4)C3)c3c(N)ncnn23)cn1C(F)F` [Example 683]: the IC50 is 193 nM.

`COC(=O)N1CC=C(c2cc(N3CCC[C@@H](NC(=O)c4n[nH]c5ccc(C#N)cc45)C3)c3c(N)ncnn23)C1` [Example 684, methyl (R)-3-(4-amino-5-(3-(5-cyano-1H-indazole-3-carboxamido)piperidin-1-yl)pyrrolo[2,1-f][1,2,4]triazin-7-yl)-2,5-dihydro-1H-pyrrole-1-carboxylate]: the IC50 came out at 261 nM.

Turning to `N#Cc1ccc2[nH]nc(C(=O)N[C@@H]3CCCN(c4cc(-c5cncnc5)n5ncnc(N)c45)C3)c2c1` [Example 685, (R)—N-(1-(4-amino-7-(pyrimidin-5-yl)pyrrolo[2,1-f][1,2,4]triazin-5-yl)piperidin-3-yl)-5-cyano-1H-indazole-3-carboxamide], the IC50 stood at 276 nM.

`COC(=O)N1CC=C(c2cc(N3CCC[C@@H](NC(=O)c4sc5ccc(F)cc5c4OC4CCNCC4)C3)c3c(N)ncnn23)C1` [Example 686, methyl (R)-3-(4-amino-5-(3-(5-fluoro-3-(piperidin-4-yloxy)benzo[b]thiophene-2-carboxamido)piperidin-1-yl)pyrrolo[2,1-f][1,2,4]triazin-7-yl)-2,5-dihydro-1H-pyrrole-1-carboxylate]: the IC50 was found to be 7 nM.
